Assay [1] addresses Epidermal growth factor receptor (EGFR)(L858R)(T790M) (Homo sapiens, UniProt P00533, L858R/T790M). In words: Inhibitory Activity for EGFR (L858R/T790M) Kinase. The procedure:
(§1) A 50 ng/μL EGFR (L858R/T790M, Carna) stock solution was diluted with a kinase buffer (50 mM HEPES, 10 mM MgCl2, 2 mM DTT, 1 mM EGTA, 0.01% Tween 20), and 6 μL of 1.67× working solution at 0.004175 ng/μL (final concentration: 0.0025 ng/μL) was added to each well. Different compounds dissolved in DMSO were added to wells using a nanoliter pipettor, resulting in the final concentrations of the compounds of 10 nM to 0.0024 nM (4-fold gradient, 7 concentrations in total), and blank control wells (without enzyme) and negative control wells (with enzyme, plus vehicle DMSO) were set, 2 replicate wells for each concentration. After enzyme was reacted with the compound or vehicle for 30 min, 5×ATP at 25 μM (final concentration: 5 μM, Sigma) prepared with a kinase buffer was mixed with 5× substrate at 0.5 μM (final concentration: 0.1 μM, ULight-poly GT, PerkinElmer) at a ratio of 1:1 (v:v), and the mixture was added to each well at 4 μL/well. After being sealed with a film, the plate was incubated at room temperature for 2 h, and then 5 μL of 4×EDTA at 40 mM (final concentration: 10 mM) was added to each well. After the plate was incubated for 5 min at room temperature, 5 μL of 4× detection reagent at 8 nM (final concentration: 2 nM, Eu-anti-phospho-tyrosine antibody, PerkinElmer) was added to each well. After being incubated at room temperature for 1 h, the plate was read using a PerkinElmer Envision multi-mode microplate reader (excitation: 320 nm, emission: 665 nm), and IC50 was calculated by four-parameter fitting.

Assay [2] has as its target Epidermal growth factor receptor [T790M,C797S,L858R] (UniProt P00533, C797S/L858R/T790M). The assay can be described thus: Inhibitory Activity for EGFR (L858R/T790M/C797S) Kinase. The procedure: as §1, with “(L858R/T790M/C797S, BPS)” for “(L858R/T790M, Carna)”, “0.00167” for “0.004175”, “0.001” for “0.0025”

What is called pIC50 is −log10 of the IC50, conventionally taken in molar units. Read a low pIC50 as a large IC50.

pIC50: −log10 of the molar value.

Sequence of Epidermal growth factor receptor (EGFR)(L858R)(T790M) (P00533 25-1210 T790M/L858R limits assumed): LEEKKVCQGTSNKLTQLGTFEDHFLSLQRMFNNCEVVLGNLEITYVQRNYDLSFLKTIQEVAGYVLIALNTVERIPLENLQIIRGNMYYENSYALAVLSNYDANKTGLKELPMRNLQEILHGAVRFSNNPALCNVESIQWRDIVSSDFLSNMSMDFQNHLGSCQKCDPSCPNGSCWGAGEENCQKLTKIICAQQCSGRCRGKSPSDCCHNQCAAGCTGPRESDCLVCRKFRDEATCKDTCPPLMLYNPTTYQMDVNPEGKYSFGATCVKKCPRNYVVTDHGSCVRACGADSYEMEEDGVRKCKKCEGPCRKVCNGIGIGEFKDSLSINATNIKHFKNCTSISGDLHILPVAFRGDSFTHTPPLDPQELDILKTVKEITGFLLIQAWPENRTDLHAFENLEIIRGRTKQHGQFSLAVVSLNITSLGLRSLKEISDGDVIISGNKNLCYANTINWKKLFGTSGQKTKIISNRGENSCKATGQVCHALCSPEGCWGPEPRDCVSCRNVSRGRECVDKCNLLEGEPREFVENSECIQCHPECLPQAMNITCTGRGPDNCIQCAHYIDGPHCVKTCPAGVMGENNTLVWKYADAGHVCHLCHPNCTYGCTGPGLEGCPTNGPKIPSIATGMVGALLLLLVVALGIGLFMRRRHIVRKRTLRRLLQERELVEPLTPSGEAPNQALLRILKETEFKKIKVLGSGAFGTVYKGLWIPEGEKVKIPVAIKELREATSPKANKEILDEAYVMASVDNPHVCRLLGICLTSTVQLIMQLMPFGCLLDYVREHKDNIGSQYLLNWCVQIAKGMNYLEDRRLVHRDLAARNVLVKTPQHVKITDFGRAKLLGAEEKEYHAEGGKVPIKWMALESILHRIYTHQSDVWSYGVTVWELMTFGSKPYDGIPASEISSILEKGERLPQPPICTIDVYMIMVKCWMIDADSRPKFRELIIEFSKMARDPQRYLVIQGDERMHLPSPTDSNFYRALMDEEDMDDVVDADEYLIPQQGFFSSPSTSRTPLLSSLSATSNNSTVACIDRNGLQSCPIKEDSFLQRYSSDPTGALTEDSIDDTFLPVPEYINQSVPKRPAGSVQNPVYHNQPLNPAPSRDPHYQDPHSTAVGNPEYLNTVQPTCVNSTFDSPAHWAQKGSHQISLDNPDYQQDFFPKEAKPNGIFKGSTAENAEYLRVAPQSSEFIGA
Sequence of Epidermal growth factor receptor [T790M,C797S,L858R] (P00533 25-1210 T790M/C797S/L858R limits assumed): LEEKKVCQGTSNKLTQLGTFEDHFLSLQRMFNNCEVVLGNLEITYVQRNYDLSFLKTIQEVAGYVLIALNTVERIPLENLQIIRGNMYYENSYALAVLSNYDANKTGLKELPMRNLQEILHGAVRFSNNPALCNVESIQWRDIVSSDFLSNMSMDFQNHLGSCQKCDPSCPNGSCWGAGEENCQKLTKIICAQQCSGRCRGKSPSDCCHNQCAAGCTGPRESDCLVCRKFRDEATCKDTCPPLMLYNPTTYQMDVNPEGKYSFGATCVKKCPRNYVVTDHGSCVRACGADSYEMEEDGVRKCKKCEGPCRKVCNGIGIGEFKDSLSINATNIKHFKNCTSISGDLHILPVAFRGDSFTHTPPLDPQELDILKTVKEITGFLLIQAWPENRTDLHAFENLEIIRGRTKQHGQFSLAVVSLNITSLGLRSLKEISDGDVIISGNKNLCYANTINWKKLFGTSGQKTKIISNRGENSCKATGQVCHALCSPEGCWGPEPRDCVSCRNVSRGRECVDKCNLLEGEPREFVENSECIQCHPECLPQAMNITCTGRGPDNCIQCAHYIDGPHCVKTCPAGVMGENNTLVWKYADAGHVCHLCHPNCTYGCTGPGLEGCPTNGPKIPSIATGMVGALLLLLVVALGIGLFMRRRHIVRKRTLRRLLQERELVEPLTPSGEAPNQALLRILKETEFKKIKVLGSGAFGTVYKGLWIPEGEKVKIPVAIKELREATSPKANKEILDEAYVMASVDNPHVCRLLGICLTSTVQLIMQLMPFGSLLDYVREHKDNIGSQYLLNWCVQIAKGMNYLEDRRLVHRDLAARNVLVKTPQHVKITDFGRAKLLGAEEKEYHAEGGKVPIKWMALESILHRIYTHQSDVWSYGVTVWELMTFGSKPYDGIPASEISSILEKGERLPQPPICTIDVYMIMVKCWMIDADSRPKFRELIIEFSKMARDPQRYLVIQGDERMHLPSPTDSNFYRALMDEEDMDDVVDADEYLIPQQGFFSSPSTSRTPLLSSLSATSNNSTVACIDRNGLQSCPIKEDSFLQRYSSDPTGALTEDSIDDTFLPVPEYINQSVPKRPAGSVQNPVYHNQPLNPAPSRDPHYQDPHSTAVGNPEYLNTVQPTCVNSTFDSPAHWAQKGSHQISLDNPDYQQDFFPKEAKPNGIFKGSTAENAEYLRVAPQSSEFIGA

With `Cc1cc2cc(n1)-c1cnn(C)c1OCCC[C@@H](C1CC1)CN1/C(=N/C2=O)Nc2cc(N[C@H](C)CN(C)C)ccc21` [US20250034165, Example 67], the negative-log IC50 (pIC50) was 9.85 in assay [1] and 9.31 in assay [2].

`Cc1cc2cc(n1)-c1cnn(C)c1OCCC[C@@H](C1CC1)CN1/C(=N/C2=O)Nc2cc(NC(C)C3(C)COC3)ccc21` (some centres undefined) [US20250034165, Example 89]: the negative-log IC50 (pIC50) in assay [1] is 9.10; in assay [2], 9.22.

Take `Cc1cc2cc(n1)-c1cnn(C)c1OCCC[C@@H](C1CC1)CN1/C(=N/C2=O)Nc2cc(NC3CC(N(C)C)C3)ccc21` (some centres undefined) [US20250034165, Example 93]: the negative logarithm of the IC50 (pIC50) in assay [1] was 9.21; in assay [2], 9.30.

As to `Cc1cc2cc(n1)-c1cnn(C)c1OCCC[C@@H](C1CC1)CN1/C(=N/C2=O)Nc2ccc(NC3CC(N(C)C)C3)cc21` (some centres undefined) [US20250034165, Example 98], the pIC50 in assay [1] is 9.59; in assay [2], 9.55.

As to `Cc1cc2cc(n1)-c1cnn(C)c1OCCC[C@@H](C1CC1)CN1/C(=N/C2=O)Nc2ccc(N[C@H]3CC[C@@H](N(C)C)CC3)cc21` [US20250034165, Example 99], the negative-log IC50 (pIC50) in assay [2] is 9.68.

In assay [1], `Cc1cc2cc(n1)-c1cnn(C)c1OCCC[C@@H](C1CC1)CN1/C(=N/C2=O)Nc2ccc(N[C@H]3CC[C@H](N(C)C)CC3)cc21` [US20250034165, Example 100] gave a negative logarithm of the IC50 (pIC50) of 9.64.

In assay [1], `Cc1cc2cc(n1)-c1cnn(C)c1OCCC[C@@H](C1CC1)CN1/C(=N/C2=O)Nc2ccc(NC(=O)CN(C)C)cc21` [US20250034165, Example 111] showed a pIC50 of 9.59.

For `Cc1cc2cc(n1)-c1cnn(C)c1OCCC[C@@H](C1CC1)CN1/C(=N/C2=O)Nc2ccc(NC(=O)CCN(C)C)cc21` [US20250034165, Example 112], the pIC50 in assay [1] is 9.85; in assay [2], 9.92.

In the case of `Cc1cc2cc(n1)-c1cnn(C)c1OCCC[C@@H](C1CC1)CN1/C(=N/C2=O)Nc2ccc(NC(=O)CCCN(C)C)cc21` [US20250034165, Example 113], the values for the pIC50 in assay [1] and in assay [2] were 9.82 and 9.92, respectively.

For `Cc1cc2cc(n1)-c1cnn(C)c1OCCC[C@@H](C1CC1)CN1/C(=N/C2=O)Nc2ccc(N(C)C3CCN(C)CC3)cc21` [US20250034165, Example 117], the pIC50 in assay [1] is 9.11; in assay [2], 9.35.

As for `Cc1cc2cc(n1)-c1cnn(C)c1OCCC[C@@H](C1CC1)CN1/C(=N/C2=O)Nc2cc(N[C@H]3C[C@@H](N(C)C)C3)ccc21` [US20250034165, Example 125], the figures for the pIC50 in assay [1] and in assay [2] were 9.77 and 10.03, respectively.

`Cc1cc2cc(n1)-c1cnn(C)c1OCCC[C@@H](C1CC1)CN1/C(=N/C2=O)Nc2cc(N[C@H]3C[C@H](N(C)C)C3)ccc21` [US20250034165, Example 126] had a pIC50 in assay [1] of 9.92.

For the compound `Cc1cc2cc(n1)-c1cnn(C)c1OCCC[C@@H](C1CC1)CN1/C(=N/C2=O)Nc2ccc(N[C@H]3C[C@@H](N(C)C)C3)cc21` [US20250034165, Example 127], the pIC50 in assay [1] is 9.39; in assay [2], 9.46.

With `Cc1cc2cc(n1)-c1cnn(C)c1OCCC[C@@H](C1CC1)CN1/C(=N/C2=O)Nc2ccc(N[C@H]3C[C@H](N(C)C)C3)cc21` [US20250034165, Example 128], the pIC50 is 9.20 in assay [1] and 9.34 in assay [2].

Consider `Cc1cc2cc(n1)-c1cnn(C)c1OCCC[C@@H](C1CC1)CN1/C(=N/C2=O)Nc2cc(N[C@@H]3CC[C@@H](N(C)C)C3)ccc21` [US20250034165, Example 129], for which the negative logarithm of the IC50 (pIC50) in assay [1] is 9.52; in assay [2], 9.41.

With `Cc1cc2cc(n1)-c1cnn(C)c1OCCC[C@@H](C1CC1)CN1/C(=N/C2=O)Nc2ccc(N[C@@H]3CC[C@@H](N(C)C)C3)cc21` [US20250034165, Example 130], the pIC50 in assay [1] is 9.52; in assay [2] it was 9.44.

Take `Cc1cc2cc(n1)-c1cnn(C)c1OCCC[C@@H](C1CC1)CN1/C(=N/C2=O)Nc2cc(N[C@H]3CC[C@@H](N(C)C)C3)ccc21` [US20250034165, Example 131]: the pIC50 in assay [1] was 10.03.

`Cc1cc2cc(n1)-c1cnn(C)c1OCCC[C@@H](C1CC1)CN1/C(=N/C2=O)Nc2ccc(N[C@H]3CC[C@@H](N(C)C)C3)cc21` [US20250034165, Example 132] gave a negative-log IC50 (pIC50) in assay [1] of 10.09.

On to `Cc1cc2cc(n1)-c1cnn(C)c1OCCC[C@@H](C1CC1)CN1/C(=N/C2=O)Nc2cc(N[C@@H]3CC[C@H](N(C)C)C3)ccc21` [US20250034165, Example 133], for which the values for the pIC50 in assay [1] and in assay [2] were 9.31 and 9.18, respectively.

For `Cc1cc2cc(n1)-c1cnn(C)c1OCCC[C@@H](C1CC1)CN1/C(=N/C2=O)Nc2ccc(N[C@@H]3CC[C@H](N(C)C)C3)cc21` [US20250034165, Example 134], the pIC50 was 9.26 in assay [1] and 9.32 in assay [2].

On to `Cc1cc2cc(n1)-c1cnn(C)c1OCCC[C@@H](C1CC1)CN1/C(=N/C2=O)Nc2cc(N[C@H]3CC[C@H](N(C)C)C3)ccc21` [US20250034165, Example 135], for which the results for the negative logarithm of the IC50 (pIC50) in assay [1] and in assay [2] were 9.49 and 9.37, respectively.

For the compound `Cc1cc2cc(n1)-c1cnn(C)c1OCCC[C@@H](C1CC1)CN1/C(=N/C2=O)Nc2ccc(N[C@H]3CC[C@H](N(C)C)C3)cc21` [US20250034165, Example 136], the figures for the pIC50 in assay [1] and in assay [2] were 9.15 and 9.47, respectively.

Take `Cc1cc2cc(n1)-c1cnn(C)c1OCCC[C@@H](C1CC1)CN1/C(=N/C2=O)Nc2cc(N[C@H](C)CN3CCCCC3)ccc21` [US20250034165, Example 137]: the pIC50 in assay [1] was 9.89; in assay [2] it was 9.28.

Consider `Cc1cc2cc(n1)-c1cnn(C)c1OCCC[C@@H](C1CC1)CN1/C(=N/C2=O)Nc2cc(N[C@@H](C)CN3CCCCC3)ccc21` [US20250034165, Example 138], for which the results for the pIC50 in assay [1] and in assay [2] were 9.89 and 9.46, respectively.

`Cc1cc2cc(n1)-c1cnn(C)c1OCCC[C@@H](C1CC1)CN1/C(=N/C2=O)Nc2cc(N[C@H](C)CCN3CCCCC3)ccc21` [US20250034165, Example 139]: the results for the negative logarithm of the IC50 (pIC50) in assay [1] and in assay [2] were 10.06 and 9.68, respectively.

Take `Cc1cc2cc(n1)-c1cnn(C)c1OCCC[C@@H](C1CC1)CN1/C(=N/C2=O)Nc2cc(N[C@@H](C)CCN3CCCCC3)ccc21` [US20250034165, Example 140]: the pIC50 in assay [1] was 9.96; in assay [2] it was 9.52.

As for `Cc1cc2cc(n1)-c1cnn(C)c1OCCC[C@@H](C1CC1)CN1/C(=N/C2=O)Nc2ccc(N[C@H](C)CN3CCCCC3)cc21` [US20250034165, Example 141], the values for the pIC50 in assay [1] and in assay [2] were 10.08 and 9.62, respectively.

Regarding `Cc1cc2cc(n1)-c1cnn(C)c1OCCC[C@@H](C1CC1)CN1/C(=N/C2=O)Nc2ccc(N[C@@H](C)CN3CCCCC3)cc21` [US20250034165, Example 142], the pIC50 in assay [1] is 9.85; in assay [2] it was 9.46.

For `Cc1cc2cc(n1)-c1cnn(C)c1OCCC[C@@H](C1CC1)CN1/C(=N/C2=O)Nc2ccc(N[C@H](C)CCN3CCCCC3)cc21` [US20250034165, Example 143], the pIC50 is 9.96 in assay [1] and 9.40 in assay [2].

Take `Cc1cc2cc(n1)-c1cnn(C)c1OCCC[C@@H](C1CC1)CN1/C(=N/C2=O)Nc2ccc(N[C@@H](C)CCN3CCCCC3)cc21` [US20250034165, Example 144]: the pIC50 in assay [1] was 10.10; in assay [2], 9.77.

The record behind these values is BindingDB's records for patent US20250034165 (Chia Tai Tianqing Pharmaceutical Group, 2025).
